ChEMBL document CHEMBL1150843, “Hortein, a new natural product from the fungus Hortaea werneckii associated with the sponge Aplysina aerophoba” (J Nat Prod, 2001)
Activity calls are given as the source filed them.

Tests used:
Format in all cases: functional, organism-based
Escherichia coli = experiment: Antibacterial activity against Escherichia coli HB101 after 4 days by serial dilution test
Staphylococcus aureus = experiment: Antibacterial activity against Staphylococcus aureus ATCC 25923 after 4 days by serial dilution test
Bacillus subtilis = experiment: Antibacterial activity against Bacillus subtilis 168 after 4 days by serial dilution test; details: subsp. subtilis str. 168
Candida albicans = experiment: Antifungal activity against Candida albicans after 4 days by serial dilution test
Spodoptera littoralis = experiment: Insecticidal activity against Spodoptera littoralis larvae administered through artificial diet by chronic feeding assay

Measured: Activity

O=C1CCC(=O)c2c1c(O)c(O)c1c2-c2ccc(O)c3c(O)ccc-1c23
inactive: all assays above
